Patent US11596150B2, “Long chain glycolipids useful to avoid perishing or microbial contamination of materials” (IMD NATURAL SOLUTIONS GMBH, priority 2011, dated 2023)
Values after ≈ are worked out from the molar mass of the structure shown. Read-outs that look alike come from different tables or passages of the source.

Experiments:
[1] = tested on: Bacillus subtilis (ATCC6633); test: MIC determination in microtiter plates (non-pathogenic microorganisms); assay type: cell-based; conditions: 48 h, read-out: MIC values after 48 h
[2] = tested on: Corynebacterium variabile (DSM20132); test: as above; assay type: cell-based; conditions: 48 h, read-out: MIC values after 48 h
[3] = tested on: Lactobacillus plantarum (DSM 12028); test: as above; assay type: cell-based; conditions: Lactiplantibacillus plantarum; Lactobacillus plantarum (DSM12028); 48 h; read-out: MIC values after 48 h
[4] = tested on: Aspergillus niger (ATCC 16404); test: as above; assay type: cell-based; conditions: Aspergillus niger (ATCC16404); 48 h; read-out: MIC values after 48 h
[5] = tested on: Byssochlamys fulva (DSM62097); test: as above; assay type: cell-based; conditions: Paecilomyces fulvus, 48 h, read-out: MIC values after 48 h
[6] = tested on: Mucor plumbeus (MUCL49355); test: as above; assay type: cell-based
[7] = tested on: Dekkera bruxellensis (DSM70726); test: as above; assay type: cell-based; conditions: Brettanomyces bruxellensis, 48 h, read-out: MIC values after 48 h
[8] = tested on: Dekkera naardenensis (DSM70743); test: as above; assay type: cell-based; conditions: Brettanomyces naardenensis, 48 h, read-out: MIC values after 48 h
[9] = tested on: Saccharomyces cerevisiae (HT10); test: as above; assay type: cell-based; conditions: 48 h, read-out: MIC values after 48 h
[10] = tested on: Zygosaccharomyces bailii (DSM70492); test: as above; assay type: cell-based; conditions: 48 h, read-out: MIC values after 48 h
[11] = tested on: Zygosaccharomyces bisporus (DSM70415); test: as above; assay type: cell-based; conditions: 48 h, read-out: MIC values after 48 h
[12] = tested on: Zygosaccharomyces florentinus (DSM70506); test: as above; assay type: cell-based; conditions: Zygotorulaspora florentina, 48 h, read-out: MIC values after 48 h
[13] = tested on: Zygosaccharomyces rouxii (NCYC381); test: as above; assay type: cell-based; conditions: 48 h, read-out: MIC values after 48 h
[14] = tested on: Staphylococcus aureus (ATCC 6538P); test: microbe, parasite or virus in culture; assay type: cell-based; conditions: ATCC6538P, Mueller-Hinton Broth, 1% DMSO, 20 hours at 36° C., read-out: MIC S. aureus
[15] = tested on: Clostridium perfringens (ATCC 13124); test: microbe, parasite or virus in culture; assay type: cell-based; conditions: ATCC13124, 48 h
[16] = tested on: Aspergillus fumigatus (ATCC 1028); test: microbe, parasite or virus in culture; assay type: cell-based
[17] = tested on: Propionibacterium acnes (ATCC6919); test: MIC after 48 h (Example 9); assay type: cell-based; conditions: Cutibacterium acnes
[18] = tested on: Talaromyces luteus (CBS348.51); test: MIC after 48 h (Example 9); assay type: cell-based; conditions: Ascospirella lutea
[19] = tested on: Pyricularia oryzae (DSM62938); test: microbe, parasite or virus in culture; assay type: cell-based; conditions: DSM62938, 48 h, read-out: MIC values after 48 h
[20] = tested on: Candida albicans; test: MIC / growth inhibition after 48 h (Example 9); conditions: ATCC10231, 48 h, read-out: MIC values after 48 h
[21] = tested on: Listeria welshimeri (DSM15452); test: MIC determination in microtiter plates (non-pathogenic microorganisms); assay type: cell-based; conditions: 48 h, read-out: MIC values after 48 h
From the text: Various nonpathogenic bacteria, yeasts, and filamentous fungi were obtained from public culture collections and maintained as recommended in the catalogues and protocols of the respective institutions. Saccharomyces cerevisiae strain HT10 and Mucor plumbeus were originally taken from the culture collection of InterMed Discovery GmbH but deposited with MUCL as reference strains for antimicrobial susceptibility testing. These strains were maintained under liquid nitrogen and, prior to the screening, on YMG agar. Prior to the screening the yeast and bacterial strains were grown over night on SDB (medium 1), except for Bacillus subtilis, which was grown on YMG agar (medium 2) for 1 week to prepare spore suspensions. Likewise, the filamentous fungi were pre-incubated on YMG agar for 2-3 weeks to create inoculum for spore suspensions. […] For all experiments, freshly prepared spore suspensions were used. The initial concentrations for the bioassays were adjusted to 1×10^5 CFU (i.e. cells or spores, respectively) per ml. […] To adjust the initial titer prior to the bioassays, the CFU per ml was determined under the microscope using a counting chamber type “Brand Neubauer improved”; BRAND GmbH & Co KG, Wertheim, Germany). This microscopic control also served as means for assessment of the viability of the cells. […]

[22] = tested on: Enterococcus faecalis (ATCC19433); test: MIC after 48 h (Example 9); conditions: ATCC19433, 48 h, read-out: MIC values after 48 h
[23] = tested on: Listeria monocytogenes (ATCC19111); test: MIC after 48 h (Example 9); conditions: ATCC19111, 48 h, read-out: MIC values after 48 h
[24] = tested on: Bacillus cereus; test: MIC / growth inhibition after 48 h (Example 9); conditions: ATCC11778, 48 h, read-out: MIC values after 48 h
[25] = tested on: Clostridium sporogenes; test: MIC / growth inhibition after 48 h (Example 9); conditions: ATCC3584, 48 h, read-out: MIC values after 48 h
[26] = M. plumbeus (MUCL49355), SDB medium, day not given (Table 19)
[27] = M. plumbeus (MUCL49355), SDB medium, day not printed (first line of Table 19)
[28] = Mucor plumbeus (MUCL49355), 48 h, read-out: MIC values after 48 h
[29] = read-out: MIC values after 48 h
[30] = Aspergillus fumigatus (ATCC1028), 48 h, read-out: MIC values after 48 h
[31] = Aspergillus fumigatus, ATCC1028, 72 h, Potato Dextrose Broth, 1% DMSO, 3 days at 28° C., read-out: MIC A. fumigatus

Row | SMILES | MIC [1] | MIC [2] | MIC [3] | MIC [4] | MIC [5] | MIC [6, 26] | MIC [6, 27] | MIC [6, 28] | MIC [7] | MIC [8] | MIC [9] | MIC [10] | MIC [11] | MIC [12] | MIC [13] | MIC [14] | MIC ([15]; read-out: MIC C. perfringens) | MIC [15, 29] | MIC [18] | MIC [19] | other results
1 | CCCCC(CCCC(O)C(O)CCCCCCCCCCCCCCC(O)C(=O)O)OC1OCC(O)C(O)C1OC1OCC(OC(C)=O)C(O)C1OC1OC(COC(=O)CC(C)C)C(O)C(O)C1O (stereo not shown) [[1], 2,17,18-trihydroxy-hexacosanoic acid 22-O-[6-isovaleroyl-hexapyranosyl-(1→2)-5-acetyl-pentapyranosyl-(1→2)-penta-pyranosid]-] | 3.1 µg/mL (≈ 3.06 µM) | 1.6 µg/mL (≈ 1.58 µM) | 25 µg/mL (≈ 24.7 µM) | 3.1 µg/mL (≈ 3.06 µM) | 3.1 µg/mL (≈ 3.06 µM) | 50 | 25 | 6.3 µg/mL (≈ 6.22 µM) | 6.3 µg/mL (≈ 6.22 µM) | 6.3 µg/mL (≈ 6.22 µM) | 6.3 µg/mL (≈ 6.22 µM) | 6.3 µg/mL (≈ 6.22 µM) | 12.5 µg/mL (≈ 12.3 µM) | 6.3 µg/mL (≈ 6.22 µM) | 6.3 µg/mL (≈ 6.22 µM) | 200 µg/mL (≈ 197 µM) | 60 µg/mL (≈ 59.2 µM) | 60 µg/mL (≈ 59.2 µM) | 12.5 µg/mL (≈ 12.3 µM) | 6 µg/mL (≈ 5.92 µM) | MIC [16, 30]: 20 µg/mL (≈ 19.7 µM); MIC [16, 31]: 20 µg/mL (≈ 19.7 µM); MIC [17]: 100 µg/mL (≈ 98.7 µM); MIC [20]: 30 µg/mL (≈ 29.6 µM)
2 | CCCCC(CCCC(O)C(O)CCCCCCCCCCCCCCC(O)C(=O)O)OC1OCC(O)C(O)C1OC1OCC(O)C(O)C1OC1OC(COC(C)=O)C(OC(C)=O)C(O)C1O (stereo not shown) [[6], Glykenin IIIB or Glykenin IIIC] | – | – | – | – | – | 25 | 25 | – | – | – | – | – | – | – | – | – | – | – | – | – | –
3 | CCCCCCC(CCCC(O)CCCCCCCCCCCCCC(O)C(=O)O)OC1OCC(O)C(O)C1OC1OCC(OC(C)=O)C(O)C1OC1OC(COC(C)=O)C(O)C(O)C1O (stereo not shown) [[10], Antibiotic F 19848A] | – | – | – | – | – | 50 | 12.5 | – | – | – | – | – | – | – | – | – | – | – | – | – | –
4 | CCCCC(CCCC(O)C(O)CCCCCCCCCCCCCCC(O)C(=O)O)OC1OCC(O)C(O)C1OC1OCC(O)C(O)C1OC1OC(COC(=O)CC(C)C)C(O)C(O)C1O (stereo not shown) [[12]] | 1.6 µg/mL (≈ 1.65 µM) | < 0.8 µg/mL | 25 µg/mL (≈ 25.7 µM) | 6.3 µg/mL (≈ 6.49 µM) | 6.3 µg/mL (≈ 6.49 µM) | 100 | 50 | 6.3 µg/mL (≈ 6.49 µM) | 6.3 µg/mL (≈ 6.49 µM) | 6.3 µg/mL (≈ 6.49 µM) | 6.3 µg/mL (≈ 6.49 µM) | 6.3 µg/mL (≈ 6.49 µM) | 12.5 µg/mL (≈ 12.9 µM) | 6.3 µg/mL (≈ 6.49 µM) | 6.3 µg/mL (≈ 6.49 µM) | 200 µg/mL (≈ 206 µM) | 60 µg/mL (≈ 61.8 µM) | 60 µg/mL (≈ 61.8 µM) | 25 µg/mL (≈ 25.7 µM) | 25 µg/mL (≈ 25.7 µM) | MIC [16, 30]: 20 µg/mL (≈ 20.6 µM); MIC [16, 31]: 20 µg/mL (≈ 20.6 µM); MIC [21]: 25 µg/mL (≈ 25.7 µM); MIC [22]: 50 µg/mL (≈ 51.5 µM); MIC [23]: 50 µg/mL (≈ 51.5 µM); MIC [24]: 12.5 µg/mL (≈ 12.9 µM); MIC [20]: 25 µg/mL (≈ 25.7 µM); MIC [25]: 50 µg/mL (≈ 51.5 µM)
5 | CCCCC(CCCC(O)C(O)CCCCCCCCCCCCCCC(O)C(=O)O)OC1OCC(O)C(O)C1OC1OCC(O)C(O)C1OC1OC(COC(=O)CC(C)C)C(OC(C)=O)C(O)C1O (stereo not shown) [[13]] | 3.1 µg/mL (≈ 3.06 µM) | 1.6 µg/mL (≈ 1.58 µM) | 25 µg/mL (≈ 24.7 µM) | 12.5 µg/mL (≈ 12.3 µM) | 3.1 µg/mL (≈ 3.06 µM) | 25 | 12.5 | 12.5 µg/mL (≈ 12.3 µM) | 6.3 µg/mL (≈ 6.22 µM) | 12.5 µg/mL (≈ 12.3 µM) | 12.5 µg/mL (≈ 12.3 µM) | 6.3 µg/mL (≈ 6.22 µM) | 25 µg/mL (≈ 24.7 µM) | 12.5 µg/mL (≈ 12.3 µM) | 12.5 µg/mL (≈ 12.3 µM) | – | – | – | 25 µg/mL (≈ 24.7 µM) | 6 µg/mL (≈ 5.92 µM) | –
